This note sets out measurements from patent US9198433B2, “Substituted benzene fungicides” (E I DU PONT DE NEMOURS AND COMPANY, priority 2007, dated 2015).

Assay type in all cases: in vivo
Test [1] concerns Erysiphe graminis f. sp. tritici. Put plainly: Test A: wheat powdery mildew, preventive spray on wheat seedlings, disease rating. The source says: (§1) The test compounds were first dissolved in acetone in an amount equal to 3% of the final volume and then suspended at the desired concentration (in ppm) in acetone and purified water (50/50 mix) containing 250 ppm of the surfactant Trem® 014 (polyhydric alcohol esters). The resulting test suspensions were then used in Tests A-L. Spraying a 200 ppm test suspension to the point of run-off on the test plants was the equivalent of an application rate of 500 g/ha. The test suspension was sprayed to the point of run-off on wheat seedlings. […] A dash (-) indicates no test results. All results are for 200 ppm except where followed by an “*”, which indicates 40 ppm or “**”, which indicates 50 ppm.

Test [2] deals with Puccinia recondita f. sp. tritici. Put plainly: Test B: wheat leaf rust, preventive spray on wheat seedlings, disease rating.
From the text: as §1

Test [3] deals with Septoria nodorum. The experiment in a line: Test C: wheat glume blotch, preventive spray on wheat seedlings, disease rating.
From the text: as §1

The test system of test [4] is Septoria tritici. The experiment in a line: Test D: wheat leaf blotch, preventive spray on wheat seedlings, disease rating. The source says:
The test compounds were first dissolved in acetone in an amount equal to 3% of the final volume and then suspended at the desired concentration (in ppm) in acetone and purified water (50/50 mix) containing 250 ppm of the surfactant Trem® 014 (polyhydric alcohol esters). The resulting test suspensions were then used in Tests A-L. Spraying a 200 ppm test suspension to the point of run-off on the test plants was the equivalent of an application rate of 500 g/ha. The test suspension was sprayed to the point of run-off on wheat seedlings. The following day the seedlings were inoculated with a spore suspension of Septoria tritici (the causal agent of wheat leaf blotch) and incubated in a saturated atmosphere at 24° C. for 48 h, and then moved to a growth chamber at 20° C. for 19 days, after which time disease ratings were made. […] A dash (-) indicates no test results. All results are for 200 ppm except where followed by an “*”, which indicates 40 ppm or “**”, which indicates 50 ppm.

In test [5] the test system is Botrytis cinerea. Put plainly: Test F: tomato Botrytis, preventive spray on tomato seedlings, disease rating. The source says: (§2) The test compounds were first dissolved in acetone in an amount equal to 3% of the final volume and then suspended at the desired concentration (in ppm) in acetone and purified water (50/50 mix) containing 250 ppm of the surfactant Trem® 014 (polyhydric alcohol esters). The resulting test suspensions were then used in Tests A-L. Spraying a 200 ppm test suspension to the point of run-off on the test plants was the equivalent of an application rate of 500 g/ha. The test suspension was sprayed to the point of run-off on tomato seedlings. […] A dash (-) indicates no test results. All results are for 200 ppm except where followed by an “*”, which indicates 40 ppm or “**”, which indicates 50 ppm.

In test [6] the test system is Alternaria solani. Put plainly: Test H: tomato early blight, preventive spray on tomato seedlings, disease rating. Particulars: 200 ppm.
From the text: as §2

Marks after values point to notes of the source that are not given here.

For the compound `COC(=O)NCc1cc(-c2ccn(-c3nc(SCc4ccccc4)ns3)n2)ccc1Cl` [Cmpd 91], the “Percentage Disease Control, Test A” value in test [1] (200 ppm) is 0%. The “Percentage Disease Control, Test B” value in test [2] (200 ppm) was 85%. Further, the “Percentage Disease Control, Test C” value in test [3] (200 ppm) was 64%. The “Percentage Disease Control, Test D” value in test [4] (200 ppm) stood at 97%. In test [5] (200 ppm), the “Percentage Disease Control, Test F” value amounted to 0%. In test [6], the “Percentage Disease Control, Test H” value is 33%.

Take `COC(=O)NCc1cc(-c2ccn(-c3nc(OC)ns3)n2)ccc1Cl` [Cmpd 92]: in test [1] (200 ppm), the “Percentage Disease Control, Test A” value is reported as 82%. In addition, the “Percentage Disease Control, Test B” value in test [2] (40 ppm (*)) is 97* %. In test [3] (40 ppm (*)), the “Percentage Disease Control, Test C” value is 92* %. For the same compound, the “Percentage Disease Control, Test D” value in test [4] (200 ppm) was 72%. The “Percentage Disease Control, Test F” value in test [5] (200 ppm) stood at 0%. Besides, the “Percentage Disease Control, Test H” value in test [6] is 15%.

As to `CCSc1nsc(-n2ccc(-c3ccc(Cl)c(CNC(=O)OC)c3)n2)n1` [Cmpd 93], the “Percentage Disease Control, Test A” value in test [1] (40 ppm (*)) is recorded as 93* %. In addition, the “Percentage Disease Control, Test B” value in test [2] (40 ppm (*)) is 98* %. Further, the “Percentage Disease Control, Test C” value in test [3] (40 ppm (*)) is reported as 100* %. Also, the “Percentage Disease Control, Test D” value in test [4] (40 ppm (*)) is recorded as 96* %. The “Percentage Disease Control, Test F” value in test [5] (200 ppm) is listed as 0%. Besides, the “Percentage Disease Control, Test H” value in test [6] came out at 15%.

As for `COC(=O)NCc1cc(-c2ccn(-c3nc(-c4ccc(C(F)(F)F)cc4)ns3)n2)ccc1Cl` [Cmpd 94], the “Percentage Disease Control, Test A” value in test [1] (200 ppm) amounted to 0%. For the same compound, the “Percentage Disease Control, Test B” value in test [2] (200 ppm) came out at 17%. In addition, the “Percentage Disease Control, Test C” value in test [3] (200 ppm) is recorded as 0%. Moreover, the “Percentage Disease Control, Test D” value in test [4] (200 ppm) was found to be 40%. The “Percentage Disease Control, Test F” value in test [5] (200 ppm) is 0%. Further, the “Percentage Disease Control, Test H” value in test [6] was found to be 0%.

Regarding `COC(=O)NCc1cc(-c2ccn(-c3nc(C4CC4)ns3)n2)ccc1Cl` [Cmpd 95], the “Percentage Disease Control, Test A” value in test [1] (40 ppm (*)) was 100* %. Further, the “Percentage Disease Control, Test B” value in test [2] (40 ppm (*)) is listed as 100* %. Also, the “Percentage Disease Control, Test C” value in test [3] (40 ppm (*)) is 100* %. Further, the “Percentage Disease Control, Test D” value in test [4] (40 ppm (*)) is given as 100* %. Further, in test [5] (40 ppm (*)), the “Percentage Disease Control, Test F” value is listed as 90* %. In test [6], the “Percentage Disease Control, Test H” value was 25%.

For the compound `COC(=O)NCc1cc(-c2ccn(-c3nc(C(C)(C)C)ns3)n2)ccc1Cl` [Cmpd 96], the “Percentage Disease Control, Test A” value in test [1] (40 ppm (*)) is listed as 100* %. For the same compound, the “Percentage Disease Control, Test B” value in test [2] (40 ppm (*)) was 100* %. In addition, the “Percentage Disease Control, Test C” value in test [3] (40 ppm (*)) was 100* %. In addition, the “Percentage Disease Control, Test D” value in test [4] (40 ppm (*)) is 100* %. For the same compound, the “Percentage Disease Control, Test F” value in test [5] (200 ppm) was determined as 0%. Besides, the “Percentage Disease Control, Test H” value in test [6] was determined as 59%.

As for `COC(=O)NCc1cc(-c2ncn(-c3ccc(Br)cc3)n2)ccc1Cl` [Cmpd 97], the “Percentage Disease Control, Test A” value in test [1] (40 ppm (*)) was 98* %. Moreover, the “Percentage Disease Control, Test B” value in test [2] (40 ppm (*)) was 100* %. In addition, the “Percentage Disease Control, Test C” value in test [3] (40 ppm (*)) is 100* %. Moreover, in test [4] (40 ppm (*)), the “Percentage Disease Control, Test D” value is 100* %. Besides, the “Percentage Disease Control, Test F” value in test [5] (200 ppm) was 0%. For the same compound, the “Percentage Disease Control, Test H” value in test [6] was determined as 85%.

In the case of `CCCCCc1cc(-c2ccc(Cl)c(CNC(=O)OC)c2)nn1C` [Cmpd 98], in test [1] (200 ppm), the “Percentage Disease Control, Test A” value is recorded as 91%. The “Percentage Disease Control, Test B” value in test [2] (40 ppm (*)) is listed as 98* %. In addition, the “Percentage Disease Control, Test C” value in test [3] (40 ppm (*)) was 90* %. The “Percentage Disease Control, Test D” value in test [4] (200 ppm) amounted to 98%. Besides, the “Percentage Disease Control, Test F” value in test [5] (200 ppm) was 0%. Further, in test [6], the “Percentage Disease Control, Test H” value is on record as 0%.

For the compound `COC(=O)NCc1cc(-c2cc(-c3ccc(C(C)(C)C)cc3)[nH]n2)ccc1Cl` [Cmpd 99], the “Percentage Disease Control, Test A” value in test [1] (200 ppm) was determined as 82%. For the same compound, in test [2] (200 ppm), the “Percentage Disease Control, Test B” value came out at 74%. In addition, in test [3] (200 ppm), the “Percentage Disease Control, Test C” value is 0%. The “Percentage Disease Control, Test D” value in test [4] (200 ppm) was found to be 92%. Also, the “Percentage Disease Control, Test F” value in test [5] (200 ppm) worked out at 98%. In addition, the “Percentage Disease Control, Test H” value in test [6] is 0%.

As for `COC(=O)NCc1cc(-c2cc(C(F)(F)F)[nH]n2)ccc1Cl` [Cmpd 100], the “Percentage Disease Control, Test A” value in test [1] (200 ppm) is reported as 0%. Moreover, in test [2] (200 ppm), the “Percentage Disease Control, Test B” value turned out to be 0%. For the same compound, the “Percentage Disease Control, Test C” value in test [3] (200 ppm) is given as 0%. For the same compound, in test [4] (200 ppm), the “Percentage Disease Control, Test D” value was 40%. Also, the “Percentage Disease Control, Test F” value in test [5] (200 ppm) stood at 0%. Besides, in test [6], the “Percentage Disease Control, Test H” value worked out at 0%.
